We go through 52 compounds from US7638535B2, “4-(aminomethyl)-piperidine benzamides as 5HT4-antagonists” (Janssen Pharmaceutica N.V., priority 2003, dated 2009).

For the assay, the target named is T1, h5-HT4b (Homo sapiens, UniProt Q13639).
T1 construct: expressed in transfected cells; host or cells: HEK 293 (clone 9), membrane preparation
In words: 5HT4 antagonism: [3H]GR113808 binding to membranes of h5-HT4b-HEK 293 clone 9 cells. As to conditions: displacement of [3H]GR113808 0.1 nM, h5-HT4b-HEK 293 membranes, 30 min at 25° C.; read-out: pIC50 (5HT4 antagonistic data) (converted). The method, then:
h5-HT4b-HEK 293 clone 9 cells were cultured in 150 mm Petri dishes and washed twice with cold PBS. The cells were then scraped from the plates and suspended in 50 mM Tris-HCl buffer, pH 7.4 and harvested by centrifugation at 23,500 rpm for 10 minutes. The pellet was resuspended in 5 mM Tris-HCl, pH 7.4 and homogenized with an Ultra Turrax homogenizer. The membranes were collected by centrifugation at 30,000 rpm for 20 min, resuspended in 50 mM Tris-HCl pH 7.4 and stored at −80° C. For the experiment, assay mixtures (0.5 ml) contained 50 μl of the tritiated ligand (5-HT4 antagonist [^3H]GR113808 0.1 nM) and 0.4 ml membrane preparation (15 μg protein/ml). 50 μl of 10% DMSO was added for total binding. 50 μl of 1 μM of (+)-trans-(1-butyl-3-hydroxy-4-piperidinyl)methyl 8-amino-7-chloro-2,3-dihydro-1,4-benzodioxin-5-carboxylate (a proprietary 5HT4 agonist of Janssen Pharmaceutica) was added for determination of non-specific binding.
The [^3H]GR113808 assay buffer was 50 mM HEPES-NaOH, pH 7.4. The mixtures were incubated for 30 min at 25° C. The incubation was terminated by filtration over a Unifilter 96 GF/B presoaked in 0.1% polyethylenimine, followed by six washing steps with 50 mM HEPES-NaOH, pH 7.4.
(Displacement assays read how much labelled ligand stays bound in the presence of the test substance.)

T1 sequence (Q13639 whole entry): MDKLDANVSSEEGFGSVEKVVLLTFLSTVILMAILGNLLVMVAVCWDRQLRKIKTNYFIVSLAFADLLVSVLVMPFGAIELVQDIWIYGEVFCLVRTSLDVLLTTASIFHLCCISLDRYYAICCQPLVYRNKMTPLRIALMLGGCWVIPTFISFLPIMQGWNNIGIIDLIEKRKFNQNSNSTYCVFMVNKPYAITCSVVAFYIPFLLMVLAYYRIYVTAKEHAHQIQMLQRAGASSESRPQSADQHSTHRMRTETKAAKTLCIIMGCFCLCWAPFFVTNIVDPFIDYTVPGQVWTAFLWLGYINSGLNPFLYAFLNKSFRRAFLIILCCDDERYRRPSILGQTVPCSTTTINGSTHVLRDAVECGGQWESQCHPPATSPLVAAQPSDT

Take `COCCCN1CC[C@@H](CNC(=O)c2cc(N)c(Br)c3c2OCCCO3)[C@H](O)C1` [compound 155]: the IC50 is 55 nM.

As for `COCCCN1CC[C@@H](CNC(=O)c2cc(NC(C)C)cc3c2OCCCO3)[C@H](O)C1` [compound 179], the IC50 is 63.1 nM.

As for `CO[C@@H]1CN(CCCC#N)CC[C@H]1CNC(=O)c1cc(C)cc2c1OCCCO2` [compound 215], the IC50 is 5.01 nM.

Consider `CCCCN1CC[C@@H](CNC(=O)c2cc(N)c(Cl)c3c2OCCCO3)[C@H](O)C1` [compound 46], for which the IC50 was 8.32 nM.

For the compound `Nc1cc(C(=O)NC[C@@H]2CCN(CCOCCO)C[C@H]2O)c2c(c1Cl)OCCO2` [compound 70], the IC50 is 89.1 nM.

On to `Nc1cc(C(=O)NC[C@@H]2CCN(CCCO)C[C@H]2O)c2c(c1Cl)OCCO2` [compound 7], for which the IC50 was 17.8 nM.

Turning to `CNc1cc2c(c(C(=O)NC[C@@H]3CCN(CCCC(=O)O)C[C@H]3O)c1)OCCCO2` [compound 27], the IC50 is 2630 nM.

As for `Cc1cc2c(c(C(=O)NC[C@@H]3CCN(CCCC#N)C[C@H]3O)c1)OCCCO2` [compound 166], the IC50 was 4.27 nM.

Consider `Nc1cc2c(c(C(=O)NC[C@@H]3CCN(CCCCO)C[C@H]3O)c1)OCCCO2` [compound 73], for which the IC50 was 55 nM.

Regarding `CCCCN1CCC(O)(CNC(=O)c2cc(C)cc3c2OCCCO3)CC1` [compound 245], the IC50 was 2.14 nM.

Regarding `CNCCCN1CC[C@@H](CNC(=O)c2cc(NC)cc3c2OCCCO3)[C@H](O)C1` [compound 81], the IC50 was 1150 nM.

For the compound `CNc1cc2c(c(C(=O)NC[C@@H]3CCN(Cc4ccc(F)cc4)C[C@H]3O)c1)OCCO2` [compound 56], the IC50 was 17.8 nM.

Take `N#CCCCN1CC[C@@H](CNC(=O)c2cc(N)cc3c2OCCO3)[C@H](O)C1` [compound 6]: the IC50 was 57.5 nM.

Regarding `CNc1cc2c(c(C(=O)NC[C@@H]3CCN(CCNS(C)(=O)=O)C[C@H]3O)c1)OCCCO2` [compound 102], the IC50 was 120 nM.

With `CCCCNc1cc2c(c(C(=O)NC[C@@H]3CCN(CCCOC)C[C@H]3O)c1)OCCCO2` [compound 157], the IC50 is 81.3 nM.

Take `Nc1cc(C(=O)NC[C@@H]2CCNC[C@H]2O)c2c(c1Cl)OCCCO2` [compound 188]: the IC50 was 832 nM.

Take `CNc1cc(C(=O)NC[C@@H]2CCN(CC3CCCO3)C[C@H]2O)c2c(c1Cl)OCCO2` (stereo partly shown) [compound 129]: the IC50 was 16.2 nM.

Turning to `N#CCCCN1CC[C@@H](CNC(=O)c2cc(N)c(Cl)c3c2OCCO3)[C@H](O)C1` [compound 15], the IC50 was 30.2 nM.

For `CCCCNc1cc2c(c(C(=O)NC[C@@H]3CCN(CCCC)C[C@H]3O)c1)OCCCO2` [compound 143], the IC50 is 61.7 nM.

`CCCCN1CC[C@@H](CNC(=O)c2cc(NC(C)C)cc3c2OCCCO3)[C@H](O)C1` [compound 174]: the IC50 was 117 nM.

Regarding `Cc1cc2c(c(C(=O)NC[C@@H]3CCN(CCC#N)C[C@H]3O)c1)OCCCO2` [compound 201], the IC50 was 14.5 nM.

`N#CCCCN1CC[C@@H](CNC(=O)c2cc(C#N)cc3c2OCCCO3)[C@H](O)C1` [compound 160]: the IC50 was 20 nM.

On to `Nc1cc2c(c(C(=O)NC[C@@H]3CCN(CC4CCCO4)C[C@H]3O)c1)OCCCO2` (stereo partly shown) [compound 4], for which the IC50 was 69.2 nM.

With `CO[C@@H]1CN(CCCO)CC[C@H]1CNC(=O)c1cc(C)cc2c1OCCCO2` [compound 210], the IC50 is 5.25 nM.

In the case of `CCCCNc1cc2c(c(C(=O)NC[C@@H]3CCNC[C@H]3O)c1)OCCCO2` [compound 154], the IC50 is 3160 nM.

As for `CCCCN1CC[C@@H](CNC(=O)c2cc(NC)cc3c2OCCCO3)[C@H](O)C1` [compound 114], the IC50 was 8.32 nM.

As for `Cc1cc2c(c(C(=O)NC[C@H]3CCN(CCCC(N)=O)C[C@H]3O)c1)OCCCO2` [compound 249], the IC50 was 37.2 nM.

In the case of `CCCCN1CC[C@@H](CNC(=O)c2cc(C#N)cc3c2OCCCO3)[C@H](OC)C1` [compound 209], the IC50 was 17.8 nM.

On to `CC(=O)CCCN1CC[C@@H](CNC(=O)c2cc(N)cc3c2OCCO3)[C@H](O)C1` [compound 83], for which the IC50 is 14.8 nM.

Take `CNc1cc2c(c(C(=O)NC[C@@H]3CCN(CCOCCO)C[C@H]3O)c1)OCCO2` [compound 84]: the IC50 is 93.3 nM.

On to `COCCCN1CC[C@@H](CNC(=O)c2cc(C)cc3c2OCCCO3)[C@H](OC)C1` [compound 206], for which the IC50 is 3.16 nM.

As for `Cc1cc2c(c(C(=O)NC[C@@H]3CCN(CCCCC(N)=O)C[C@H]3O)c1)OCCCO2` [compound 217], the IC50 was 1.48 nM.

Turning to `Nc1cc2c(c(C(=O)NC[C@@H]3CCN(CCCOC4CCCCC4)C[C@H]3O)c1)OCCCO2` [compound 49], the IC50 is 25.7 nM.

For the compound `COCCCCN1CC[C@@H](CNC(=O)c2cc(N)c(Cl)c3c2OCCO3)[C@H](O)C1` [compound 29], the IC50 is 11 nM.

Consider `CCCCN1CC[C@@H](CNC(=O)c2cc(NC)c(Cl)c3c2OCCO3)[C@H](O)C1` [compound 28], for which the IC50 was 15.5 nM.

For `CNc1cc(C(=O)NC[C@@H]2CCN(CCCC#N)C[C@H]2O)c2c(c1Cl)OCCO2` [compound 130], the IC50 is 55 nM.

Consider `Cc1nccnc1NCCN1CC[C@@H](CNC(=O)c2cc(N)c(Cl)c3c2OCCCO3)[C@H](O)C1` [compound 92], for which the IC50 is 12 nM.

On to `CC(C)Nc1cc2c(c(C(=O)NC[C@@H]3CCN(CCCC#N)C[C@H]3O)c1)OCCCO2` [compound 172], for which the IC50 was 107 nM.

Regarding `COCCCN1CC[C@@H](CNC(=O)c2cc(COC)cc3c2OCCCO3)[C@H](O)C1` [compound 124], the IC50 was 26.9 nM.

With `Nc1cc(C(=O)NC[C@@H]2CCNC[C@H]2O)c2c(c1Br)OCCO2` [compound 133], the IC50 is 537 nM.

On to `CNc1cc2c(c(C(=O)NC[C@@H]3CCN(CCC4OCCO4)C[C@H]3O)c1)OCCO2` [compound 17], for which the IC50 is 25.7 nM.

Consider `CNc1cc2c(c(C(=O)NC[C@@H]3CCN(CCCOC)C[C@H]3O)c1)OCCO2` [compound 115], for which the IC50 is 16.2 nM.

In the case of `N#CCc1cc2c(c(C(=O)NC[C@@H]3CCN(CCCO)C[C@H]3O)c1)OCCCO2` [compound 120], the IC50 was 43.7 nM.

For the compound `Nc1cc2c(c(C(=O)NC[C@@H]3CCN(CCC4OCCO4)C[C@H]3O)c1)OCCCO2` [compound 118], the IC50 was 60.3 nM.

Consider `Cc1cc2c(c(C(=O)NC[C@@H]3CCN(CCCOC(C)C)C[C@H]3O)c1)OCCCO2` [compound 212], for which the IC50 was 0.813 nM.

In the case of `Nc1cc(C(=O)NC[C@@H]2CCN(Cc3ccc(F)cc3)C[C@H]2O)c2c(c1Cl)OCCO2` [compound 64], the IC50 is 15.5 nM.

As for `Nc1cc(C(=O)NC[C@@H]2CCNC[C@H]2O)c2c(c1Cl)OCCO2` [compound 8], the IC50 is 372 nM.

For `CNc1cc2c(c(C(=O)NC[C@@H]3CCN(CCCCOC)C[C@H]3O)c1)OCCO2` [compound 54], the IC50 is 14.8 nM.

On to `CNCCCCN1CC[C@@H](CNC(=O)c2cc(N)c(Cl)c3c2OCCCO3)[C@H](O)C1` [compound 94], for which the IC50 is 34.7 nM.

Regarding `Nc1cc(C(=O)NC[C@@H]2CCN(CCCCO)C[C@H]2O)c2c(c1Cl)OCCO2` [compound 53], the IC50 is 20 nM.

For the compound `Nc1cc(C(=O)NC[C@@H]2CCN(CCCC(=O)O)C[C@H]2O)c2c(c1Cl)OCCO2` [compound 25], the IC50 was 138 nM.

For the compound `Cc1cc2c(c(C(=O)NC[C@@H]3CCN(CCCOC(=O)N4CCCC4)C[C@H]3O)c1)OCCCO2` [compound 250], the IC50 was 0.759 nM.
